# Where two headings read alike, the source gives them in different places.
# Assays:
# [1] = test system: nucleic acids to a bound factor; experiment: Cross-linking / fixative activity: effectiveness in covalently linking nucleic acids to a bound factor; format: biochemical
# Protocol: Several cross-linking fixatives incorporating a nucleic acid binding group covalently coupled with a primary amine-binding group were synthesized. These agents were assayed to determine effectiveness covalently linking nucleic acids to a bound factor.
# [2] = test system: whole cells; experiment: Combination crosslinking, first and second agents added to whole cells; format: cell-based; details: combination with second agent EGS (amine binding); both added more or less simultaneously to whole cells, not less than 30 minutes, room temperature to 37 Celsius
# Protocol: Note: For Combination crosslinking experiments, both the First and Second agents are added more or less simultaneously to whole cells (ethidium bromide requires prior membrane permeabilization) for not less than 30 minutes at room temperature to 37 Celsius.
molecule,measurement,setting,value
O=CCCCC=O [glutaraldehyde],Activity as fixative agent,[1]; additional fixative agents,some activity
"CC[n+]1c(-c2ccccc2)c2cc(N=[N+]=[N-])ccc2c2ccc(NC(=O)CCC(=O)OCCOC(=O)CCC(=O)ON3C(=O)CCC3=O)cc21.[Br-] [B, 8-azido-3-(4-(2-(4-(2,5-dioxopyrrolidin-1-yloxy)-4-oxobutanoyloxy)ethoxy)-4-oxobutanamido)-5-ethyl-6-phenylphenanthridinium bromide]",Activity,[1]; synthesized compounds: DNA-binding moiety coupled with NHS ester protein-binding moiety,Strong
Cc1oc2c(C)c3oc(=O)cc(C)c3cc2c1CN [4-aminomethyl trioxsalen],Activity,[2],Weak
"CC[n+]1c(-c2ccccc2)c2cc(N=[N+]=[N-])ccc2c2ccc(N)cc21.[Br-] [Ethidium bromide monoazide, 3-Amino-8-azido-5-ethyl-6-phenylphenanthridinium bromide]",Activity,[2],Strong
O=CC=O [glyoxal],Activity as fixative agent,[1],some activity
"2,5-dioxopyrrolidin-1-yl-2-(4-(3-methylthioureido)-4-oxobutanoyloxy)ethyl succinate chloro(ethylenediamine)platinum(II) complex",Activity,[1],Some
"C1OC1C1CO1 (stereo not drawn) [1,3 butadiene diepoxide]",Activity as fixative agent,[1],some activity
N.N.[Cl][Pt][Cl] [Cisplatin],Activity,[2],Strong
"O=C(CCC(=O)OCCOC(=O)CCC(=O)ON1C(=O)CCC1=O)NC(Cc1ccc(N(CCCl)CCCl)cc1)C(=O)O (stereo not drawn) [A, 3-(4-(bis(2-chloroethyl)amino)phenyl)-2-(4-(2-(4-(2,5-dioxopyrrolidin-1-yloxy)-4-oxobutanoyloxy)ethoxy)-4-oxobutanamido)propanoic acid]",Activity,[1],Strong

# From patent US20090215029A1, “METHODS OF ISOLATING AND PURIFYING NUCLEIC ACID-BINDING BIOMOLECULES AND COMPOSITIONS INCLUDING SAME” (CytoCure, Inc., priority 2007, published 2009)
